Measured values: PubChem BioAssay AID1259407 (Chemical Carcinogenesis Research Information System (CCRIS), 2018)
Calls of active or inactive are those of the source. No rule for the calls is given here.

System: CCRIS mutagenicity, Ames/micronucleus/aberration tests
Test: CCRIS mutagenicity studies
[1] = Test System: MOUSE LYMPHOMA, Strain/Indicator: L5178Y (TK+/TK-), Metabolic Activation: NONE, Method: SUSPENSION/PLATE
[2] = Test System: MOUSE LYMPHOMA, Strain/Indicator: L5178Y (TK+/TK-), Metabolic Activation: RAT, LIVER, S-9, AROCLOR 1254, Method: SUSPENSION/PLATE

Measured: mutagenic call

C/C=C(\C)C=O
inactive: [2] inactive; negative. reevaluation of results: negative
active: [1] active; positive. reevaluation of results: inconclusive

O=c1[nH]c(=O)n([C@@H]2O[C@H](CO)[C@@H](O)[C@@H]2O)cc1/C=C/Br
inactive: Test System: CHINESE HAMSTER V-79, Strain/Indicator: V-79/8-AZAGUANINE, Metabolic Activation: NONE inactive; negative | Test System: UDS RODENT HEPATOCYTES, Strain/Indicator: THY INCORP, Metabolic Activation: NONE inactive; negative

[Zn]
inactive: Test System: AMES SALMONELLA TYPHIMURIUM, Strain/Indicator: TA98, Metabolic Activation: NONE, Method: STANDARD PLATE inactive; negative | Test System: AMES SALMONELLA TYPHIMURIUM, Strain/Indicator: TA98, Metabolic Activation: RAT, LIVER, S-9, PHENOBARBITAL, Method: STANDARD PLATE inactive; negative | Test System: AMES SALMONELLA TYPHIMURIUM, Strain/Indicator: TA102, Metabolic Activation: NONE, Method: STANDARD PLATE inactive; negative | Test System: AMES SALMONELLA TYPHIMURIUM, Strain/Indicator: TA102, Metabolic Activation: RAT, LIVER, S-9, PHENOBARBITAL, Method: STANDARD PLATE inactive; negative | Test System: AMES SALMONELLA TYPHIMURIUM, Strain/Indicator: TA1535, Metabolic Activation: NONE, Method: STANDARD PLATE inactive; negative | Test System: AMES SALMONELLA TYPHIMURIUM, Strain/Indicator: TA1535, Metabolic Activation: RAT, LIVER, S-9, PHENOBARBITAL, Method: STANDARD PLATE inactive; negative | Test System: AMES SALMONELLA TYPHIMURIUM, Strain/Indicator: TA1537, Metabolic Activation: NONE, Method: STANDARD PLATE inactive; negative | Test System: AMES SALMONELLA TYPHIMURIUM, Strain/Indicator: TA1537, Metabolic Activation: RAT, LIVER, S-9, PHENOBARBITAL, Method: STANDARD PLATE inactive; negative | Test System: UDS HUMAN AMNION FL CELL LINE, Strain/Indicator: THY INCORP, Metabolic Activation: NONE, Method: LIQUID SCINTILLATION COUNTING inactive; negative

NC(=O)c1nnn(Cc2cc(Cl)c(C(=O)c3ccc(Cl)cc3)c(Cl)c2)c1N
inactive: Test System: Mouse lymphoma, Strain/Indicator: L5178Y (tk+/tk-), Metabolic Activation: None, Method: Suspension/plate inactive; inconclusive (previous evaluation negative) | Test System: Mouse lymphoma, Strain/Indicator: L5178Y (tk+/tk-), Metabolic Activation: Rat, Liver, S-9, Aroclor 1254, Method: Suspension/plate inactive; negative

COc1ccc(C(=O)c2ccccc2)c(O)c1
active: [2] active; positive. reevaluation of results: equivocal
inactive: Test System: AMES SALMONELLA TYPHIMURIUM, Strain/Indicator: TA97, Metabolic Activation: HAMSTER, LIVER, S-9, AROCLOR 1254 (10%), Method: PREINCUBATION inactive; negative | Test System: AMES SALMONELLA TYPHIMURIUM, Strain/Indicator: TA97, Metabolic Activation: HAMSTER, LIVER, S-9, AROCLOR 1254 (30%), Method: PREINCUBATION inactive; negative | Test System: AMES SALMONELLA TYPHIMURIUM, Strain/Indicator: TA97, Metabolic Activation: NONE, Method: PREINCUBATION inactive; negative | Test System: AMES SALMONELLA TYPHIMURIUM, Strain/Indicator: TA97, Metabolic Activation: RAT, LIVER, S-9, AROCLOR 1254 (10%), Method: PREINCUBATION inactive; negative | Test System: AMES SALMONELLA TYPHIMURIUM, Strain/Indicator: TA97, Metabolic Activation: RAT, LIVER, S-9, AROCLOR 1254 (30%), Method: PREINCUBATION inactive; negative | Test System: AMES SALMONELLA TYPHIMURIUM, Strain/Indicator: TA98, Metabolic Activation: HAMSTER, LIVER, S-9, AROCLOR 1254 (10%), Method: PREINCUBATION inactive; negative | Test System: AMES SALMONELLA TYPHIMURIUM, Strain/Indicator: TA98, Metabolic Activation: HAMSTER, LIVER, S-9, AROCLOR 1254 (30%), Method: PREINCUBATION inactive; negative | Test System: AMES SALMONELLA TYPHIMURIUM, Strain/Indicator: TA98, Metabolic Activation: NONE, Method: PREINCUBATION inactive; negative | Test System: AMES SALMONELLA TYPHIMURIUM, Strain/Indicator: TA98, Metabolic Activation: RAT, LIVER, S-9, AROCLOR 1254 (10%), Method: PREINCUBATION inactive; negative | Test System: AMES SALMONELLA TYPHIMURIUM, Strain/Indicator: TA98, Metabolic Activation: RAT, LIVER, S-9, AROCLOR 1254 (30%), Method: PREINCUBATION inactive; negative | Test System: AMES SALMONELLA TYPHIMURIUM, Strain/Indicator: TA100, Metabolic Activation: HAMSTER, LIVER, S-9, AROCLOR 1254 (10%), Method: PREINCUBATION inactive; negative | Test System: AMES SALMONELLA TYPHIMURIUM, Strain/Indicator: TA100, Metabolic Activation: HAMSTER, LIVER, S-9, AROCLOR 1254 (30%), Method: PREINCUBATION inactive; negative | Test System: AMES SALMONELLA TYPHIMURIUM, Strain/Indicator: TA100, Metabolic Activation: NONE, Method: PREINCUBATION inactive; negative | Test System: AMES SALMONELLA TYPHIMURIUM, Strain/Indicator: TA100, Metabolic Activation: RAT, LIVER, S-9, AROCLOR 1254 (10%), Method: PREINCUBATION inactive; negative | Test System: AMES SALMONELLA TYPHIMURIUM, Strain/Indicator: TA100, Metabolic Activation: RAT, LIVER, S-9, AROCLOR 1254 (30%), Method: PREINCUBATION inactive; negative | Test System: AMES SALMONELLA TYPHIMURIUM, Strain/Indicator: TA1535, Metabolic Activation: HAMSTER, LIVER, S-9, AROCLOR 1254 (10%), Method: PREINCUBATION inactive; negative | Test System: AMES SALMONELLA TYPHIMURIUM, Strain/Indicator: TA1535, Metabolic Activation: HAMSTER, LIVER, S-9, AROCLOR 1254 (30%), Method: PREINCUBATION inactive; negative | Test System: AMES SALMONELLA TYPHIMURIUM, Strain/Indicator: TA1535, Metabolic Activation: NONE, Method: PREINCUBATION inactive; negative | Test System: AMES SALMONELLA TYPHIMURIUM, Strain/Indicator: TA1535, Metabolic Activation: RAT, LIVER, S-9, AROCLOR 1254 (10%), Method: PREINCUBATION inactive; negative | Test System: AMES SALMONELLA TYPHIMURIUM, Strain/Indicator: TA1535, Metabolic Activation: RAT, LIVER, S-9, AROCLOR 1254 (30%), Method: PREINCUBATION inactive; negative | Test System: AMES SALMONELLA TYPHIMURIUM, Strain/Indicator: TA1537, Metabolic Activation: HAMSTER, LIVER, S-9, AROCLOR 1254 (10%), Method: PREINCUBATION inactive; negative | Test System: AMES SALMONELLA TYPHIMURIUM, Strain/Indicator: TA1537, Metabolic Activation: NONE, Method: PREINCUBATION inactive; negative | Test System: AMES SALMONELLA TYPHIMURIUM, Strain/Indicator: TA1537, Metabolic Activation: RAT, LIVER, S-9, AROCLOR 1254 (10%), Method: PREINCUBATION inactive; negative | [1] inactive; positive. reevaluation of results: negative
